The source of these data is ChEMBL document CHEMBL1137005 (Bioorg Med Chem Lett, 2009).

Data set [1] is described as follows: Clearance in rat at 1 mg/kg, iv and 2 mg/kg, po. It is filed as ADME, organism-based. Particulars: in vivo.
Data set [2] concerns the target T1, Bifunctional epoxide hydrolase 2 (Homo sapiens, UniProt P34913).
T1 sequence (P34913 whole entry): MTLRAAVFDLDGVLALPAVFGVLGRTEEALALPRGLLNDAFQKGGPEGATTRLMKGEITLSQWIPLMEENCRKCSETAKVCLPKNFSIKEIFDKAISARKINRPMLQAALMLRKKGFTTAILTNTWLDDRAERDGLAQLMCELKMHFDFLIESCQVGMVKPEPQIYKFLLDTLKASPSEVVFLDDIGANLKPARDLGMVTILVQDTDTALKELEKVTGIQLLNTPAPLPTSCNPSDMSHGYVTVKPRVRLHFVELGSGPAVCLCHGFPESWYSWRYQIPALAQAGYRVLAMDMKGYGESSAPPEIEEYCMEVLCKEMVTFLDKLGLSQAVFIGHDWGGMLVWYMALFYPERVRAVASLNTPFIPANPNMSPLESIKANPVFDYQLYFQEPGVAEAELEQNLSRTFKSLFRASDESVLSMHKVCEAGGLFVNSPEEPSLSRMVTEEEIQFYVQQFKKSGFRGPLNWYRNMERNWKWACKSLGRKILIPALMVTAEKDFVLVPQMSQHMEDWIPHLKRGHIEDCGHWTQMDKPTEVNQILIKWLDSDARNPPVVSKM
Briefly: Inhibition of human soluble epoxide hydrolase.

Data set [3] in a line: Inhibition of potassium channel IKr.
A further data set concerns the target Cytochrome P450 3A4 (Homo sapiens, UniProt P08684). Briefly: Inhibition of CYP3A4. It is filed as ADME.
Data set [4] is described as follows: Bioavailability in rat at 1 mg/kg, iv and 2 mg/kg, po. It counts as ADME, organism-based. Particulars: in vivo.
Data set [5] concerns the target T2, Bifunctional epoxide hydrolase 2 (Rattus norvegicus, UniProt P80299).
T2 sequence (P80299 whole entry): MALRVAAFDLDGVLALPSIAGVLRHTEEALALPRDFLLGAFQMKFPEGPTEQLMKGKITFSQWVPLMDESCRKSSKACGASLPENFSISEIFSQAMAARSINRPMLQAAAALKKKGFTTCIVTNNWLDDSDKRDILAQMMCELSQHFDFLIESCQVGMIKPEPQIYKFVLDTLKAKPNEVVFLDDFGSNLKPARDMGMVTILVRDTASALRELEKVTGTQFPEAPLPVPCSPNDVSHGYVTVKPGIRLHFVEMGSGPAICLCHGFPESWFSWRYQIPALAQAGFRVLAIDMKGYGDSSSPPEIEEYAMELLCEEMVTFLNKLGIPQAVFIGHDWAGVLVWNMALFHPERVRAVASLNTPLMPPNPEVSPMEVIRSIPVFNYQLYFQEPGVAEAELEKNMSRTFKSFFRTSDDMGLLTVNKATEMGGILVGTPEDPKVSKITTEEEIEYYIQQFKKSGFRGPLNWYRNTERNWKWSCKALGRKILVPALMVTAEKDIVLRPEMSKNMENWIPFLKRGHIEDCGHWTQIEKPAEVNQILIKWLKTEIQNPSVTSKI
Briefly: Inhibition of rat soluble epoxide hydrolase.

Data set [6] in a line: Volume of distribution at steady state in rat at 1 mg/kg, iv and 2 mg/kg, po. It counts as ADME, organism-based. Particulars: in vivo, read-out: Vdss.
For data set [7], the target named is Sodium channel protein type 5 subunit alpha (Homo sapiens, UniProt Q14524). As to the kind of experiment: Inhibition of Voltage-gated sodium channel subunit alpha Nav1.5.
A further data set deals with Cytochrome P450 2D6 (Homo sapiens, UniProt P10635). Briefly: Inhibition of CYP2D6. It counts as ADME.
For the next data set, the target named is Cytochrome P450 2C9 (Homo sapiens, UniProt P11712). As to the kind of experiment: Inhibition of CYP2C9. It counts as ADME.
Data set [8] in a line: Half life in rat at 1 mg/kg, iv and 2 mg/kg, po. It is filed as ADME, organism-based. The note with it: in vivo.
A short description of data set [9]: Binding affinity to […] channel diltiazem binding site.
In a further data set the target is T3, Epoxide hydrolase 1 (Homo sapiens, UniProt P07099).
T3 sequence (P07099 whole entry): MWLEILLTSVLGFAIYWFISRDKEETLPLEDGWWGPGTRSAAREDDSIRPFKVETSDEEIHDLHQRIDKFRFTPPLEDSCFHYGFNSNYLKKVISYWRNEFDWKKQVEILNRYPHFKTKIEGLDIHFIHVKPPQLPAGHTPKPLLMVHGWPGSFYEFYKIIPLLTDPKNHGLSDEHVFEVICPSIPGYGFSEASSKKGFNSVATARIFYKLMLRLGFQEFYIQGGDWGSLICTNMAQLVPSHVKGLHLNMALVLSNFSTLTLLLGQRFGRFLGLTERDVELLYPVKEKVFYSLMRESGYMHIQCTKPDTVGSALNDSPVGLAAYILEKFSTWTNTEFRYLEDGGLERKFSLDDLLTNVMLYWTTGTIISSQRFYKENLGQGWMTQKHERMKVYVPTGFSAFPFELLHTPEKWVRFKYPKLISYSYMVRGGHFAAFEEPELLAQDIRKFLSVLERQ
As to the kind of experiment: Inhibition of human microsomal epoxide hydrolase.

The next data set deals with Blood. As to the kind of experiment: Inhibition of DHET production in rat whole blood at 1 uM after 1 hr. It is filed as functional. Details: Activity: scale not given: the % may be the effect or the level left.
Data set [10] addresses T1, Bifunctional epoxide hydrolase 2. Briefly: Inhibition of human soluble epoxide hydrolase in HEK293 cells assessed as DHET production. It counts as cell-based.
For data set [11], the target named is Voltage-dependent L-type calcium channel subunit alpha-1C (Homo sapiens, UniProt Q13936). Briefly: Activity at Cav 1.2 channel.
Data set [12] deals with Rattus norvegicus. Briefly: Antihypertensive activity in spontaneously hypertensive rat assessed as change in diastolic blood pressure at 300 mg/kg, po. It is filed as functional, organism-based. Details: dose 300 mg/kg. The note with it: Artery.
The test system of data set [13] is Rattus norvegicus. As to the kind of experiment: Antihypertensive activity in spontaneously hypertensive rat assessed as change in heart rate at 300 mg/kg, po. It is filed as functional, organism-based. Details: dose 300 mg/kg.
For data set [14], the system named is Rattus norvegicus. As to the kind of experiment: Antihypertensive activity in spontaneously hypertensive rat assessed as change in pulse pressure at 300 mg/kg, po. It is filed as functional, organism-based. Details: dose 300 mg/kg.
Data set [15] relates to Rattus norvegicus. Briefly: Antihypertensive activity in spontaneously hypertensive rat assessed as change in systolic blood pressure at 300 mg/kg, po. Details: dose 300 mg/kg. The note with it: Artery. It counts as functional, organism-based.
In data set [16] the test system is Rattus norvegicus. As to the kind of experiment: Ex vivo inhibition of DHET production in spontaneously hypertensive rat plasma at 50 mg/kg, po after 0.5 to 6 hrs. It is filed as functional.
In data set [17] the test system is Rattus norvegicus. As to the kind of experiment: Plasma concentration in spontaneously hypertensive rat plasma at 50 mg/kg, po. The note with it: in vivo. It counts as ADME, organism-based. Details: dose 50 mg/kg, route oral.
A short description of data set [18]: Plasma concentration in spontaneously hypertensive rat plasma at 300 mg/kg, after 24 hrs. It is filed as ADME, organism-based. Details: dose 300 mg/kg.
Data set [19] can be described thus: Plasma concentration in spontaneously hypertensive rat plasma at 300 mg/kg, after 2 hrs. Further details: dose 300 mg/kg. It counts as ADME, organism-based.
The nature of data set [20]: Plasma concentration in spontaneously hypertensive rat plasma at 300 mg/kg, after 5 hrs. Further details: dose 300 mg/kg. It is filed as ADME, organism-based.

pIC50: −log10 of the molar value. The source made the active and inactive calls.

Chain of Sodium channel protein type 5 subunit alpha (Q14524 whole entry): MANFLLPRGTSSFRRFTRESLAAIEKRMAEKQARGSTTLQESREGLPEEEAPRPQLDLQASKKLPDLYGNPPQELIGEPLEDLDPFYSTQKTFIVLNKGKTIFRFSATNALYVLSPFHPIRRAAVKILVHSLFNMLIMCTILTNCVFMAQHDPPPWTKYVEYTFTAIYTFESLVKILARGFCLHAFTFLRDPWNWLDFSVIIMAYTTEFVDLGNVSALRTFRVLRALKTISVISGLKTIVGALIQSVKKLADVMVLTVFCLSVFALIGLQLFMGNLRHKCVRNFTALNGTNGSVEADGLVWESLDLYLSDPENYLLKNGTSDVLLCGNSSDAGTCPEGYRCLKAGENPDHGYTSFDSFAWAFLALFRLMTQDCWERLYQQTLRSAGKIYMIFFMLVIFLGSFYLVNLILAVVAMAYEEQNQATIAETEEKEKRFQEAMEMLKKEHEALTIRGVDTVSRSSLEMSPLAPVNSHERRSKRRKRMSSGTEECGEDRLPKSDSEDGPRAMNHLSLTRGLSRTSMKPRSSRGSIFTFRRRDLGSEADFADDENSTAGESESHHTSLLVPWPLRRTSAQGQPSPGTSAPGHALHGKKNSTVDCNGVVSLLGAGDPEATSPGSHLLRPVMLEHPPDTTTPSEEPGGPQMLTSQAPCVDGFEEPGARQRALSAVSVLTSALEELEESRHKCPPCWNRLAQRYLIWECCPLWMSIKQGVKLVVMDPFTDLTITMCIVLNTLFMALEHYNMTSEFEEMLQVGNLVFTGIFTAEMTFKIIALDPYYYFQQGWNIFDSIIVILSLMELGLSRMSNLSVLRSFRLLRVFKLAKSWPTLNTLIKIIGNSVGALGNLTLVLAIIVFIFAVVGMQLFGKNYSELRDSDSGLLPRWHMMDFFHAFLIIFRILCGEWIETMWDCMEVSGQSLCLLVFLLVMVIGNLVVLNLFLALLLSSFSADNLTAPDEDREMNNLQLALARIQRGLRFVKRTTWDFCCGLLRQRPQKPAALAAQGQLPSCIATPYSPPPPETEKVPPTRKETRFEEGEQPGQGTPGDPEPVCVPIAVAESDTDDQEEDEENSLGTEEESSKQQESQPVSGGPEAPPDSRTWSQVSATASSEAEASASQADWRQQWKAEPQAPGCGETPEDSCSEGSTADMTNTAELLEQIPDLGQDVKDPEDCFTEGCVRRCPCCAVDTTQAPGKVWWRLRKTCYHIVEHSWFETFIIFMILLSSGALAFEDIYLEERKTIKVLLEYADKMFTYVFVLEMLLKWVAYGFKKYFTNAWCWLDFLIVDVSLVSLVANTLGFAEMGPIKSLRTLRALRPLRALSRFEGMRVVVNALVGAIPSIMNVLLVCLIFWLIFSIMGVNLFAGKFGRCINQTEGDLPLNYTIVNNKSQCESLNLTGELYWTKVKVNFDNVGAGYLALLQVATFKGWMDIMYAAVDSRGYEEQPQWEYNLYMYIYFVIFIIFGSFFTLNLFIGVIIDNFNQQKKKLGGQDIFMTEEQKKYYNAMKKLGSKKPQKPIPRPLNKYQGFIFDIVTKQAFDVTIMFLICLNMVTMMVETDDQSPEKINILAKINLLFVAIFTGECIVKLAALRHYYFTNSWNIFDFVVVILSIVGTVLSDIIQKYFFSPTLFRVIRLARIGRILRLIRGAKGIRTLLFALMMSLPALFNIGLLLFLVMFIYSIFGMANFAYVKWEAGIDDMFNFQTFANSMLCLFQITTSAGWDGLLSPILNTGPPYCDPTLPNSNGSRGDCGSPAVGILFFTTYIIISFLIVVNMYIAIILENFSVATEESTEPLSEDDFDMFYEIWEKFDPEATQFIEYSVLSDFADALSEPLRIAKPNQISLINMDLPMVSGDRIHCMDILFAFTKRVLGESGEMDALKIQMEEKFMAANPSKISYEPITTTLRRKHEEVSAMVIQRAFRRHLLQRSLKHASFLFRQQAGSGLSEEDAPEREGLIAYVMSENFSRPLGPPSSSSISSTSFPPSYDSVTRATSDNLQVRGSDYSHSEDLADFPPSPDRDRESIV
Chain of Cytochrome P450 3A4 (P08684 whole entry): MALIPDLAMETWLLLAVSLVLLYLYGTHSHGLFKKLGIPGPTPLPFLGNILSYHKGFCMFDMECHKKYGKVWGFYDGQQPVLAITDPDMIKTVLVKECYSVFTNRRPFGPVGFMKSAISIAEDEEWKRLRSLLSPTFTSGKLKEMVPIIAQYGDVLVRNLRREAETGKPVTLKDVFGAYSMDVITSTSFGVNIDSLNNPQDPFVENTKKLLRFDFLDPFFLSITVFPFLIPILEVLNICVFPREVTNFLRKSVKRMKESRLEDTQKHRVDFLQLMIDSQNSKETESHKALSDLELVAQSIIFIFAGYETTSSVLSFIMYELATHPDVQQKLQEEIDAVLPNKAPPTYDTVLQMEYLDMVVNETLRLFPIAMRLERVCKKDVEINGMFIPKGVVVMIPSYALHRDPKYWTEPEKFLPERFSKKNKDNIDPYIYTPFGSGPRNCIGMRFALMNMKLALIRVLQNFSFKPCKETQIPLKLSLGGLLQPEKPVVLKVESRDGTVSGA
Chain of Cytochrome P450 2C9 (P11712 whole entry): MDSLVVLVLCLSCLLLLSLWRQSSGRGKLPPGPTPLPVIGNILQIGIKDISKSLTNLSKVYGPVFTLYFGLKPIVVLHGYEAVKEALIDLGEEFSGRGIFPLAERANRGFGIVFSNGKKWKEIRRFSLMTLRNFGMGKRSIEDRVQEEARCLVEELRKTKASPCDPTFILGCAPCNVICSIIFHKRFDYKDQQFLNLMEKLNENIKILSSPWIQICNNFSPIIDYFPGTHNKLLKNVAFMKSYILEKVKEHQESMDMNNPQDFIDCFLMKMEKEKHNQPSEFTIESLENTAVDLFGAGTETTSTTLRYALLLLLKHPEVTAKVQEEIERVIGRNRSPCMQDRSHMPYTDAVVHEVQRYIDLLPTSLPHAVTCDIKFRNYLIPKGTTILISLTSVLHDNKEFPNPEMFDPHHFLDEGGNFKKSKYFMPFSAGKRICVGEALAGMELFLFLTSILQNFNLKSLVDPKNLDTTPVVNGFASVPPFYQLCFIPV
Chain of Cytochrome P450 2D6 (P10635 whole entry): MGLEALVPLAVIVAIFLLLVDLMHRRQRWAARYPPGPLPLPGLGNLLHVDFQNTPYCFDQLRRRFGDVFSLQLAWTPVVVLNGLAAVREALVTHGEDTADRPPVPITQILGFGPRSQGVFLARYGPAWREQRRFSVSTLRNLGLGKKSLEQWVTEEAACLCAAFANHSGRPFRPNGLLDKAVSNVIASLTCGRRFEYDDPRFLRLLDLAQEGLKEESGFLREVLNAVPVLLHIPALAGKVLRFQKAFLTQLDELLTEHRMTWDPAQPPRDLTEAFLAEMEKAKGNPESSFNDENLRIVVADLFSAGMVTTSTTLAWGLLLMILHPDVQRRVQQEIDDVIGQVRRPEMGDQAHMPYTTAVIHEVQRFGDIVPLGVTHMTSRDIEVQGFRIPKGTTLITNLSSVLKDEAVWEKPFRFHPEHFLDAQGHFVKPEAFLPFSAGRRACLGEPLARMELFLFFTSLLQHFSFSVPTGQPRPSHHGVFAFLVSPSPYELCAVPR

Usually pIC50 stands for the negative decadic logarithm of the IC50, by convention in mol/L. As usually defined, the bioavailability is the share of a dose that reaches the circulation, judged against a reference dose that is usually intravenous. Broadly, the half-life is the time needed for the level to fall by half in the phase considered. On to `CS(=O)(=O)c1ccc2c(c1)C(=O)CC1(CCN(C(=O)N[C@H]3C[C@@H]3c3ccccc3)CC1)O2` (racemic), for which the clearance in [1] was 1 mL/min/kg. Also, the pIC50 in [2] is 8.40; in [3] it was 5.40; against Cytochrome P450 3A4 it was less than 5.00; in data set [5], 7.92; in data set [7] it was less than 5.00; on Cytochrome P450 2D6, less than 5.00. The pIC50 was less than 5.00 against Cytochrome P450 2C9 and less than 4.59 in data set [9]. In data set [4], this molecule yielded a bioavailability of 49%. Further, the Vd in data set [6] is 0.2 L/kg. The molecule also gave a half-life in data set [8] of 2.6 h.

With `CS(=O)(=O)c1ccc2c(c1)CCC1(CCN(C(=O)c3ccc(C(F)(F)F)cc3)CC1)O2`, the clearance in data set [1] was determined as 0.9 mL/min/kg. Moreover, the pIC50 in data set [2] was 8.70; in data set [3], 4.60; against Epoxide hydrolase 1, less than 4.00; on Cytochrome P450 3A4 it was less than 5.00; in data set [5], 7.72; in data set [10], greater than 9.00. In addition, the pIC50 in [7] is less than 5.00; on Cytochrome P450 2D6, less than 5.00; on Cytochrome P450 2C9, 5.12; in data set [9], less than 4.52. Further, the Activity in the data set with Blood is 66%. Further, the bioavailability in [4] was 61%. In addition, in data set [6], the Vd worked out at 1.6 L/kg. The same molecule gave a half-life in data set [8] of 18 h.

In the case of `CS(=O)(=O)c1ccc2c(c1)CCC1(CCN(C(=O)Cc3ccc(Cl)cc3Cl)CC1)O2`, in [1], the clearance is 0.7 mL/min/kg. Moreover, the pIC50 in data set [3] is 6.10; in [5] it was 8.40; in data set [9] it was less than 4.52. Besides, in data set [4], the bioavailability was 67%. Moreover, in [6], the Vd stood at 0.15 L/kg. The same molecule showed a half-life in data set [8] of 2.6 h.

For orientation: inhibition means the change of the read-out against control, counted positive when it falls. The molecule `CS(=O)(=O)c1ccc2c(c1)CCC1(CCN(C(=O)N[C@H]3C[C@@H]3c3ccccc3)CC1)O2.Cl` (racemic) returned a clearance in data set [1] of 0.7 mL/min/kg. The molecule further came in with an inhibition at 1 µM in the data set on Blood (Rattus norvegicus, Blood, 1 h) of 32%. In [4], this molecule gave a bioavailability of 86%. Further, the Vd in data set [6] came to 0.23 L/kg. In addition, the half-life in data set [8] is 3.9 h.

In the case of `O=C(N[C@H]1C[C@@H]1c1ccccc1)N1CCC2(CCc3ncccc3O2)CC1` (relative stereo), the pIC50 was 8.30 in data set [2]; less than 4.52 in [3]; less than 4.00 on Epoxide hydrolase 1; less than 5.00 against Cytochrome P450 3A4; 4.70 in data set [11]; 7.68 in [5]. Also, the pIC50 in data set [10] was greater than 9.00; in [7], less than 5.00; on Cytochrome P450 2D6 it was less than 5.00; against Cytochrome P450 2C9, less than 5.00. This molecule came in with an Activity in the data set with Blood of 9.2%.

Take `O=C1CC2(CCN(C(=O)N[C@H]3C[C@@H]3c3ccccc3)CC2)Oc2ccccc21` (racemic) [listing 1 of 2 here]: the outcome in the data set on Rattus norvegicus [12], with Rattus norvegicus [13], with Rattus norvegicus [14] and with Rattus norvegicus [15] was inactive.

Turning to `O=C1CC2(CCN(C(=O)N[C@H]3C[C@@H]3c3ccccc3)CC2)Oc2cccnc21` (relative stereo), the pIC50 in data set [2] is 8.10; in data set [3] it was less than 4.52; against Epoxide hydrolase 1 it was less than 4.00; at Cytochrome P450 3A4 it was less than 5.00; in [11], less than 4.52; in data set [5], 7.70. Further, the results for the pIC50 (in data set [10]; in data set [7]; at Cytochrome P450 2D6) were 8.40, less than 5.00 and less than 5.00, respectively. The Activity with Blood came to 12%.

What is called inhibition in vivo is the change of the read-out against control, counted positive when it falls. Consider `O=C1CC2(CCN(C(=O)N[C@H]3C[C@@H]3c3ccccc3)CC2)Oc2ccccc21` (racemic) [listing 2 of 2 here], for which the clearance in data set [1] amounted to 47 mL/min/kg. Besides, the inhibition in vivo at 50 mg/kg in the data set on Rattus norvegicus [16] was greater than 95%. In the data set with Rattus norvegicus [17], the concentration worked out at 800 nM. For the same molecule, the concentration at 24 h in data set [18] is 1700 nM. In the data set with Blood, this molecule gave an Activity of 8.6%. Besides, in data set [4], the bioavailability worked out at 61%. Besides, the Vd in data set [6] came to 3.1 L/kg. The molecule also had a concentration at 2 h in data set [19] of 3600 nM. Besides, the concentration at 5 h in data set [20] came out at 2700 nM. In data set [8], this molecule gave a half-life of 1.5 h.
